Source: patent US20240366577A1, “CONTROLLED LONG-TERM DRUG DELIVERY AND METHODS THEREOF” (THE JOHNS HOPKINS UNIVERSITY, priority 2021, published 2024)

Assays:
tumor endothelial CD31 = test: immunofluorescent staining of tumors: CD31; assay type: in vivo, BALB/c mice; details: single SC injection of 3 mg or 10 mg crystals, compared to daily bolus
Method: (§1) To confirm the effects seen at the level of RNA, immunofluorescent staining of excised tumor samples that were in parallel fixed with paraformaldehyde and embedded in paraffin was performed. […] Co-localization of CD31 with aSMact was, as expected, not linked in crystal sorafenib-treated tumors, where CD31 reduction was more extensive than with daily, bolus sorafenib.
(§2) Immunofluorescence imaging was used to determine anti-angiogenic drug efficacy. Tumor tissues were retrieved from mice and fixed overnight using 4% paraformaldehyde at 4° C. After fixation, retrieved tissue samples were moved to 70% ethanol. Samples were then processed for paraffin embedding, sectioning and staining. […] Next, tissues were incubated for 1 hour in an immunostaining cocktail solution consisting of NucBlue (Thermo), specific marker probes (1:200 dilution) anti-CD31 (Cat#DIA-310, HistoBioTec) and anti-alphaSmoothMuscle actin-Cy3 (Sigma) in Dako staining buffer. For CD31, a goat anti-rat alexa-fluor647 secondary antibody was also used (1:400). After staining, samples were rinsed again with 1X PBS three times prior to slides being cover slipped with Pro-long anti-fade Gold (Thermo). […] For stain quantification, images were converted into 8-bit image files, a background threshold was determined using NIH ImageJ, and then all images were processed using an NIH ImageJ macro to quantify the area of positive stain. […]

[1] = body weight of treated tumor-bearing mice; assay type: in vivo, BALB/c mice; details: crystals in ~100-200 μl saline, IP or SC, any site or dose tested
Method: However, due to the highly hydrophobic nature of sorafenib, its daily 25 mg/kg bolus dosing regimen required regular used of a solvent solution made up of ˜60% of the strong organic solvent dimethylsulfoxide (DMSO). […] In stark contrast, no DMSO was required for delivery of sorafenib crystals, for which instead simply utilized ˜100-200 μl of saline to inject into the desired IP or SC tissue sites.
Once tumors had reached an average volume of ˜220-250 mm^3, mice were administered either subcutaneously or intraperitoneally with 3 or 10 mg of crystalline sorafenib, diameter ˜150-200 μm, suspended in 200 μL of sterile saline using an 18 g needle. As a control, mice (n=4) were dosed with sorafenib dissolved at a concentration of 4 mg/mL in a solution of 65% DMSO (remainder DPBS). Mice were dosed either subcutaneously or intraperitoneally with a bolus of 25 mg drug per kg of bodyweight (BW), daily. As a secondary control, mice were dosed with the 65% DMSO/PBS vehicle to monitor changes in body score based on the vehicle alone.

[2] = crystals collected from vitreous fluid after intravitreal injection; assay type: in vivo, mouse; details: collected 2 weeks after injection; compared to larger crystalline sorafenib
[3] = test system: alpha Smooth Muscle actin (aSMact); test: immunofluorescent staining of tumors: aSMact; assay type: in vivo, BALB/c mice; details: single SC injection of 3 mg or 10 mg crystals, compared to daily bolus
Method: as §1, §2

4T1-luciferase tumors = test: 4T1-luciferase tumor IVIS bioluminescence, co-injection with crystals; assay type: in vivo, BALB/c mice; details: 2 mg of 150-200 μm crystals co-injected with 4T1-luciferase cells; up to 20 days; vs PBS controls; p<0.05
Method: To determine long-term potential of tunable, slow-releasing crystal-formulated sorafenib, efficacy of a single injection of the injectable drug composition was measured in a syngeneic model of triple negative breast cancer (TNBC): 4T1 tumors grown orthotopically in the mammary fat pad of BALB/c mice. For in vivo testing, mice were anesthetized with inhaled isofluorane and inoculated with 4T1, also referred to as 4T1-Luciferase, Luc, cancer cells, injected into the right inguinal mammary fat pad, as shown in FIG. 3A. […] Tumor presence was quantified over time up to 20 days post injection in both cases based on measured luminescence in equivalent regions of interest (ROIs, white circles), depicted in FIG. 3C. […]
4T1 or 4T1-luc2 cells were trypsinized using 0.25% Trypsin-EDTA, then diluted with the appropriate complete culture media and spun in a centrifuge at 300 g for 5 min. […] Cells were counted with a Countess automated cell counter. […] Tumors were measured externally using a digital caliper, and volume was calculated (!″* (length * height) *−length * height). […]
4T1-Luc2 tumor-injected mice were dosed with RediJect D-Luciferin K+ salt 5 minutes prior to examination. […] Equivalent regions of interest (ROIs) were used for quantification of tumor groups.

With `CNC(=O)c1cc(Oc2ccc(NC(=O)Nc3ccc(Cl)c(C(F)(F)F)c3)cc2)ccn1` [crystalline sorafenib, sorafenib] the “tumor endothelial CD31 levels (immunofluorescence)” value (tumor endothelial CD31) was “reduction is greater”, the effect on bodyweight [1] was “did not negatively affect bodyweight” and the “polymorph and crystal form of crystals recovered from vitreous fluid” value [2] was “identical in polymorph and crystal form”. The “tumor aSMact levels (immunofluorescence)” value [3] was “reduction is less significant” and the “anti-tumor efficacy (tumor luminescence in ROIs)” value (4T1-luciferase tumors) was “significant anti-tumor efficacy”.
